Data as given in US20060153932A1, “Method of treating hyperphosphataemia using lanthanum hydroxycarbonate” (Shire Pharmaceuticals, Inc., priority 2004, published 2006).

Assays:
[1] = 4-week oral toxicity study in rats; conditions: 103 or 1030 mg lanthanum/kg/day for 4 weeks
Protocol: A study was conducted to assess the toxicity of lanthanum hydroxycarbonate. Rats were dosed orally with lanthanum hydroxycarbonate (103 or 1030 mg lanthanum/kg/day), lanthanum carbonate tetrahydrate (103 or 1030 mg lanthanum/kg/day) or vehicle for 4 weeks.

[2] = In vitro phosphorus binding of lanthanum compounds
Protocol: In order to evaluate the efficacy of lanthanum hydroxycarbonate as a phosphate binder, the in vitro phosphorus binding of lanthanum hydroxycarbonate and lanthanum carbonate tetrahydrate were measured using the methodology described below:
The equivalent of 1 g elemental lanthanum as either lanthanum hydroxycarbonate or as lanthanum carbonate tetrahydrate was added to 500 mL of 0.1N HCl at 37° C. and adjusted to pH 1 with HCl which contained 300 mg of phosphorus. The preparation was stirred and sampled at regular intervals. This sample was filtered and the filtrate measured for phosphorus content using a Sigma Diagnostics Kit for Inorganic Phosphorus determination. The loss of phosphorus from the filtrate represents the amount of phosphorus bound by lanthanum and precipitated then retained on the filter.

SMILES | Plasma exposure to lanthanum [1] | rates of in vitro phosphate binding as compared to lanthanum carbonate tetrahydrate ([2]; dosed at the same level of elemental lanthanum) | more effective at binding phosphate in vitro, compared to lanthanum carbonate tetrahydrate ([2]; pH 1, same level of elemental lanthanum)
O.O.O.O.O=C([O-])[O-].O=C([O-])[O-].O=C([O-])[O-].[La+3].[La+3] [lanthanum carbonate tetrahydrate, Lanthanum carbonate tetrahydrate] | similar | – | –
O=C([O-])[O-].[La+3].[OH-] [lanthanum hydroxycarbonate] | – | improved rates of in vitro phosphate binding | approximately 50%
